Experimental data from patent US10934303B2, “Aryl ethene derivative and pharmaceutical composition containing same as active ingredient” (priority 2016, dated 2021).
Like-named read-outs stand apart in the source and are kept apart here.

Key:
GST-bound ERR alpha LBD = GST-bound ERR alpha LBD (Homo sapiens (Human), UniProt P11474); details: TR-FRET, PGC1a coactivator; read-out: Binding Assay, IC50 ERRα
Protocol: The arylethene derivative of the present invention was sequentially added to a 384 well plate from a concentration of 10 μM to a final concentration of two-fold dilution. […] After all reagents were added, a reaction was carried out with gentle shaking at 20° C. for 1 hour, and after the reaction, a binding activity was measured by a TR-FRET method.

ERRγ = format: cell-based
Protocol: AD293 was cultured in a 24-well plate for 24 hours, using a DMEM High glucose culture medium (Hyclone, USA) to which 0.5% FBS was added at a concentration of 9×10^4/well. The culture medium was replaced with a DMEM High glucose culture medium to which 10% FBS was added, treatment was performed with a mixture of a TransIT-LT1 transfection reagent (Mirus, USA) and pCMX-Gal4-ERRγ, pFR-luciferase reporter plasmid, pCMV-β-gal, and culturing was performed for 24 hours. Thereafter, a luciferase activity assay and a β-gal assay were performed, respectively, with a lysate obtained after treatment with the arylethene derivative of the present invention for 24 hours. All results were derived from three or more independent repetitive experiments.

CYP1A2 = CYP1A2 (Homo sapiens (Human), UniProt P05177); test: Cytochrome P450 activity inhibition, CYP1A2; format: in vitro ADME; details: 10 μM, human liver microsomes, Phenacetin substrate
Text: (§1) 1) Cytochrome P450 (CYP450) Activity Inhibition Evaluation

CYP2C9 = CYP2C9 (Homo sapiens (Human), UniProt P11712); test: Cytochrome P450 activity inhibition, CYP2C9; format: in vitro ADME; details: 10 μM, human liver microsomes, Diclofenac substrate
Text: as §1

CYP2C19 = CYP2C19 (Homo sapiens (Human), UniProt P33261); test: Cytochrome P450 activity inhibition, CYP2C19; format: in vitro ADME; details: 10 μM, human liver microsomes, S-mephenytoin substrate
Text: as §1

CYP2D6 = CYP2D6 (Homo sapiens (Human), UniProt P10635); test: Cytochrome P450 activity inhibition, CYP2D6; format: in vitro ADME; details: 10 μM, human liver microsomes, Dextromethorphan substrate
Text: as §1

CYP3A4 = CYP3A4 (Homo sapiens (Human), UniProt P08684); test: Cytochrome P450 activity inhibition, CYP3A4; format: in vitro ADME; details: 10 μM, human liver microsomes, Midazolam substrate
Text: as §1

in vitro = in vitro ADME; design: Papp at 5 h: dose or concentration left out as unconfirmed; details: PBS pH 7.4, 25° C.
Protocol: 3) Parallel Artificial Membrane Permeability Assay (PAMPA) Evaluation
PAMPA is a method which has been developed for testing cell membrane permeability of a material in a test tube, and has been performed using a lipid tri-layer PVDF membrane available from Corning Gentest (NY, US), the used reagents were all purchased from Sigma (MO, US). First, a test material is diluted in PBS (pH 7.4) to a final concentration of 10 mM, 300 mL of the solution is added to the bottom well of a 96-transwell equipped with a PVDF membrane, and 200 mL of PBS is added to the upper well. Then, a plate is reacted at 25° C. for 5 hours, 20 mL of the solution in each well is transferred to a new container, and 80 mL of acetonitrile containing an internal standard material (4 mM chloropropamide) is added thereto. A concentration of the material in the solution is analyzed using LC-MS/MS (ThermoFisher Scientific, MO, US), and the transmittance of the material is calculated according to the equation reported in the reference document.

in vivo = format: in vivo; details: rat
Protocol: An oral administration group fasts the day before.
Blood of each animal is collected at 0 hour.
Into a tail vein of an intravenous administration group (IV), a drug is injected at a dose of 1 mg/kg (syringe).
To an oral administration group (PO), a drug is orally administered at a dose of 10 mg/kg (oral zondec)
After administration, blood of the intravenous administration group was collected through a jugular vein 8 times at 0.08, 0.25, 0.5, 1, 2, 4, 6, and 8 hours. One collected blood amount is 400 to 500 ul.
After administration, blood of the oral administration group was collected through a jugular vein 6 times at 0.25, 0.5, 1, 4, 6 and 8 hours. One collected blood amount is 400 to 500 ul.
Supernatant plasma is collected by a centrifuge.
The supernatant plasma was injected into a LC-MS/MS system and the drug is analyzed.

[1] = tested on: CAL-62 anaplastic thyroid cancer cell line; format: cell-based; details: for each concentration and each time
ERRγ mRNA = test: Quantitative RT-PCR, ERRγ mRNA in CAL62 cells; format: cell-based
Protocol: (§2) Total RNA was separated using Trizol (Invitrogen, Carlsbad, Calif.). Total RNA (2 ug) was reverse-transcribed into cDNA with RevertAid First Strand cDNA Synthesis Kit (Thermo Scientific, Pittsburgh, Pa.). Genes were amplified with a ViiA 7 Real-Time PCR System instrument (Applied Biosystems) using the primer of each target gene and YBR Green PCR master mix (Applied Biosystems, Foster City, Calif.), using a cDNA template. The primer sequence of each target gene is as follows: ERRγ (forward, 5′-CAG ACG CCA GTG GGA GCT A-3′; reverse, 5′-TGGCGAGTCAAGTCCGTTCT-3′), NIS (forward, 5′-TCTAACCGATGCTCACCTCTTCTG-3′; reverse, 5′-AGATGATGGCACCTCCTTGAACC-3′), and acidic ribosomal protein 36B4 (forward, 5′-CCA CGC TGC TGA ACA TGC T-3′; reverse, 5′-TCGAACACCTGCTGGATGAC-3′). Each target gene was normalized using a 36B4 gene.

NIS mRNA = test: Quantitative RT-PCR, NIS mRNA in CAL62 cells; format: cell-based
Protocol: as §2

ERRγ protein = test: Western blot, ERRγ protein in CAL62 cells; format: cell-based; details: 24 hours
NIS protein = test: Western blot, total and membrane-localized NIS protein in CAL62 cells; format: cell-based
CAL62 cells = test: Clonogenic assay with 131I; format: cell-based
Protocol: The cells were plated in a 6-well plate, and allowed to stand for 24 hours. […] The cells were washed with cold bHBSS, and allowed to stand in a normalized culture medium for a time corresponding to six doublings. Finally, the cells were fixed in a 4% paraformaldehyde (PFA) solution and stained with 0.05% crystal violet.

CAL-62/effluc tumor [2] = test: 125I bio-distribution study in CAL-62/effluc mouse tumor model; format: in vivo, Nude mice (Balb/c nu/nu)
Protocol: (§3) Nude mice (Balb/c nu/nu, female, 6 weeks old) were used, and all animals were normally raised in DMRC center animal laboratory of Kyungbuk National University Hospital in Chilgok. 5×10^6 CAL-62/effluc cells were subcutaneously injected into the left femoral region of the nude mouse to form a tumor. The tumor was extracted, divided into small pieces (20 mg or more), and then intradermally injected into the nude mouse to form a tumor.
After 4 hours of administration, all organs including a parent tumor were extracted, and each organ was weighed. Thereafter, each organ was transferred to a 5 mL test tube, and radioactivity in the organ was measured using a gamma counter.

CAL-62/effluc tumor [3] = test: Tumor growth by bioluminescent imaging in CAL-62/effluc mouse tumor model; format: in vivo, Nude mice (Balb/c nu/nu); details: 100 mpk, 200 mpk orally daily for 6 days
Protocol: as §3
In order to observe a difference in tumor growth between before administration and after administration, optical imaging (bioluminescent imaging) was performed.
For obtaining an optical image, D-luciferin (3 mg/mouse) was intraperitoneally injected to the mouse. After about 10 minutes of injection, the mouse was anesthetized by inhalation (I-2% isoflurane gas), and then positioned on a IVIS Lumina III (PerkinElmer) imaging bed. The time for obtaining the image was automatically set, and then an optical image was obtained.

hERG channel = hERG channel (Homo sapiens (Human), UniProt Q12809); details: read-out: hERG IC50; fluorescence polarization assay
[4] = 1 μM, 30 minutes, 37° C., NADPH
[5] = 1 μM, 30 minutes, 37° C., NADPH; remark: listed apart in the source
CAL-62/effluc tumor [6] = details: background statement; cited from earlier work

CYP3A4, sequence (P08684 whole entry): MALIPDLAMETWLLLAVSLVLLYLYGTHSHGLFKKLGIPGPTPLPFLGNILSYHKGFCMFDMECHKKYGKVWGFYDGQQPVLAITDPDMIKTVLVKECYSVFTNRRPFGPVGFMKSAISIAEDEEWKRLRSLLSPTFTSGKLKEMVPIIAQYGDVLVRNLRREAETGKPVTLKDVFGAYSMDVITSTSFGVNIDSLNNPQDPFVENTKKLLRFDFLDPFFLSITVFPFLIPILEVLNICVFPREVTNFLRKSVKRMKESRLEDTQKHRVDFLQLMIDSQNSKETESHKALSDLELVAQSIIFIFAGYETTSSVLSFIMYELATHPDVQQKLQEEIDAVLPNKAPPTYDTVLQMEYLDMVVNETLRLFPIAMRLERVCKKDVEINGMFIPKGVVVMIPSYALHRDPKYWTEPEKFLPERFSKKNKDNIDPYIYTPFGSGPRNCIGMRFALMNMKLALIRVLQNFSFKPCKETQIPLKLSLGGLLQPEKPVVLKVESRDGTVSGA
CYP2C9, sequence (P11712 whole entry): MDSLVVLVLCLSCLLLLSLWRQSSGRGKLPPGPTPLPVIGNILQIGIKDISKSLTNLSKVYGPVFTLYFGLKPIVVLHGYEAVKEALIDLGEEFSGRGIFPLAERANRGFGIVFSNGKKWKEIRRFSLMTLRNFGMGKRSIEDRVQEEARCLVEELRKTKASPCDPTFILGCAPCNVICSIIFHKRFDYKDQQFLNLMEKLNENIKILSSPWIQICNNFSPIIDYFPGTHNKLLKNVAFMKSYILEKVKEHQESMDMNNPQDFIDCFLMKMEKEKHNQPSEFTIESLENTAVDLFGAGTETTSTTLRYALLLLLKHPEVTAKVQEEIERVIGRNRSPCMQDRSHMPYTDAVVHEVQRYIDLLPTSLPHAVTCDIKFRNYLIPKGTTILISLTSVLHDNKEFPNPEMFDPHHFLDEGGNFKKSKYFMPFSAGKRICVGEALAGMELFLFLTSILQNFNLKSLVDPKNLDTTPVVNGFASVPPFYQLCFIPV
CYP1A2, sequence (P05177 whole entry): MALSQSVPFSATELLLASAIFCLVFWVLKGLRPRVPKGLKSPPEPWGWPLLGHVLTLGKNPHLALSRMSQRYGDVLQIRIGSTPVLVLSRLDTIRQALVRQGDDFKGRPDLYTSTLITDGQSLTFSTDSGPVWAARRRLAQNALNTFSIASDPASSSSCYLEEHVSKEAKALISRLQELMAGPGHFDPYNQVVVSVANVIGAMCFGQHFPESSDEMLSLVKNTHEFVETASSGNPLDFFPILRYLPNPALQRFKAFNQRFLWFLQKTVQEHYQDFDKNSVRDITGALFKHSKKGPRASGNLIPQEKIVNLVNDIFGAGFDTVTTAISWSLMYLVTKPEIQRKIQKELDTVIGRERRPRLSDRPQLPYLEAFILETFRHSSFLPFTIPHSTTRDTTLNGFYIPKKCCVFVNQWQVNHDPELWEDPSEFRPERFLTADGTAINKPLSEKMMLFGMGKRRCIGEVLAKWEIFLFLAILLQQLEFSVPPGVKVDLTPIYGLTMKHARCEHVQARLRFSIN
CYP2C19, sequence (P33261 whole entry): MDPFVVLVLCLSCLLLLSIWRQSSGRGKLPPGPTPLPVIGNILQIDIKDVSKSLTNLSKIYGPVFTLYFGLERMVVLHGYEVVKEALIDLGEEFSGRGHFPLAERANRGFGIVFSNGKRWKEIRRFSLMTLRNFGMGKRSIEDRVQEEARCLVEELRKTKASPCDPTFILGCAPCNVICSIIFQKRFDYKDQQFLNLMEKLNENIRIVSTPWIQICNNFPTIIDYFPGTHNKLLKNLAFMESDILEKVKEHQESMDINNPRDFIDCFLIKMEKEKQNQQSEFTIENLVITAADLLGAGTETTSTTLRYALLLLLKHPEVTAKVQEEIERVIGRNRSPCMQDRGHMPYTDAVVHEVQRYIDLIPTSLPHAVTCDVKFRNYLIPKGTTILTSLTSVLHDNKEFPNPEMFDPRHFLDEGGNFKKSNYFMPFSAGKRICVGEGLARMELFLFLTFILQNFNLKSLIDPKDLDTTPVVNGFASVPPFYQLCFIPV
GST-bound ERR alpha LBD, sequence (P11474 193-421): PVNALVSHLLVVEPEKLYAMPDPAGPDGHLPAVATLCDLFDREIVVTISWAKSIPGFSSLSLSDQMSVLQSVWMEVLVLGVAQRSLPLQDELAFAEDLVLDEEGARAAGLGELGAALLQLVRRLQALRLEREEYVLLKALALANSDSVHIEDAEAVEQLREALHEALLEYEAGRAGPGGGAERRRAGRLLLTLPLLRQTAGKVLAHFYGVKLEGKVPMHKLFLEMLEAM
CYP2D6, sequence (P10635 whole entry): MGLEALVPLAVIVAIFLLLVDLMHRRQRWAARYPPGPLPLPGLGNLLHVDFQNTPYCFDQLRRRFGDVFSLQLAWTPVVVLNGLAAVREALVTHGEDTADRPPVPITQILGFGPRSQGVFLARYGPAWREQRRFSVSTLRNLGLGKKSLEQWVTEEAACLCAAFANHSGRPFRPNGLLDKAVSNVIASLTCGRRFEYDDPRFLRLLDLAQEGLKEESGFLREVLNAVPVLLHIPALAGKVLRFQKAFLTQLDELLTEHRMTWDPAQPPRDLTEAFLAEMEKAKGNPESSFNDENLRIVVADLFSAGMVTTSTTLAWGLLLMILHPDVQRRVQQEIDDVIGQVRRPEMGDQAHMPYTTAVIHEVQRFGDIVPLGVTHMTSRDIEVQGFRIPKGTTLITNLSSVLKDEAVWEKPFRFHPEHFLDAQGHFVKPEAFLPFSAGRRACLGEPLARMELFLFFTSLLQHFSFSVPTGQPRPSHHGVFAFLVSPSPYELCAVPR

Structure (SMILES): CC(C)N1CCN(c2ccc(C(=C(CCCO)c3ccccc3)c3ccc(O)cc3)cc2)CC1 [Compound 18a]
- IC50 (GST-bound ERR alpha LBD): > 10 µM
- Functional Assay at 10 μM (% of control), Cpds (ERRγ; 10 μM, 24 hours, AD293): 4.83 % of control
- Functional Assay, Cpds/Ref 5182 (ERRγ; activity relative to reference compound GSK5182, 10 μM): 1.18
- CYP inhibition (% of control) 1A2 (CYP1A2): 88 % of control
- CYP inhibition (% of control) 2C9 (CYP2C9): 86.1 % of control
- CYP inhibition (% of control) 2C19 (CYP2C19): 81.2 % of control
- CYP inhibition (% of control) 2D6 (CYP2D6): 63.5 % of control
- CYP inhibition (% of control) 3A4 (CYP3A4): 66.4 % of control
- Permeability Pampa (in vitro; 5 hours): 0.46 10^−6 cm/s
- AUCINF (in vivo; IV, 1 mg/kg): 0.49 μMh
- AUCall (in vivo; IV, 1 mg/kg): 0.42 μMh
- Vss (in vivo; IV, 1 mg/kg): 25.2 L/kg
- t1/2 (in vivo; IV, 1 mg/kg): 3.8 h
- AUCINF (in vivo; PO, 10 mg/kg): 1.29 μMh
- AUCall (in vivo; PO, 10 mg/kg): 0.81 μMh
- BA (in vivo; PO, 10 mg/kg): 21.4%
- Tmax (in vivo; PO, 10 mg/kg): 1.1 h
- Cmax (in vivo; PO, 10 mg/kg, read-out: Cmax): 210 nM
- radioactive iodine uptake in CAL62 cells [1]: significant increase
- ERRγ mRNA expression, decrease compared with vehicle treated group (ERRγ mRNA): about 16 times
- NIS mRNA expression, increase compared with vehicle-treated group (NIS mRNA): about 2 times
- ERRγ protein expression, decrease compared with vehicle treated group (ERRγ protein): about 2.8 times
- increase in membrane fully glycosylated NIS protein (NIS protein; biotinylated membrane protein): 8.1 times
- increase in membrane partially glycosylated NIS protein (NIS protein; biotinylated membrane protein): 6.4 times
- total NIS protein expression, change compared with vehicle treated group (NIS protein; text says significantly increased, then 'decreased by'): about 1.9 times
- cytotoxic effect, alone (clone formation assay) (CAL62 cells; CAL62 cells, single agent): minimal cytotoxic effect
- radioactive uptake in CAL62 tumor, increase compared with vehicle group (CAL-62/effluc tumor [2]; 100 mpk orally daily for 6 days): 4.4 times
- radioactive uptake in CAL62 tumor, increase compared with vehicle group (CAL-62/effluc tumor [2]; 200 mpk orally daily for 6 days): 16.2 times
- tumor growth (optical imaging) (CAL-62/effluc tumor [3]): significant tumor growth inhibitory efficiency
- IC50 (hERG channel): 18.7 µM

Structure (SMILES): CN(C)CCOc1ccc(/C(=C(/CCCO)c2ccccc2)c2ccc(O)cc2)cc1 [GSK5182, (Z)-4-(1-(4-(2-(dimethylamino)ethoxy)phenyl)-5-hydroxy-2-phenylpent-1-en-1-yl)phenol, reference compound]
- CYP inhibition (% of control) 3A4 (CYP3A4): 83 % of control
- Papp at 5 h (in vitro; PAMPA, read-out: Permeability Pampa): 0.11 to 0.82 ×10⁻⁶ cm/s
- half-life (in vivo; in vivo, IV, 1 mg/kg): 2.3 h
- Vd (in vivo; in vivo, IV, 1 mg/kg, read-out: Vss): 9.1 L/kg
- CL/F (in vivo; in vivo, PO, 10 mg/kg, read-out: Cl(observed)/F): 134 mL/min/kg
- Tmax (in vivo; in vivo, PO, 10 mg/kg, read-out: Tmax): 1.9 h
- AUCINF (in vivo; IV, 1 mg/kg): 0.94 μMh
- AUCall (in vivo; IV, 1 mg/kg): 0.89 μMh
- Cl(observed)/F (in vivo; IV, 1 mg/kg): 44 mL/min/kg
- AUCINF (in vivo; PO, 10 mg/kg): 0.78 μMh
- AUCall (in vivo; PO, 10 mg/kg): 0.68 μMh
- BA (in vivo; PO, 10 mg/kg): 8.4%
- Cmax (in vivo; in vivo, po, 10 mg/kg): 130 nM
- colony-formability, combining 131I and GSK5182 (CAL62 cells; CAL-62, combination with 131I): about 58.5±7.4%
- MS(Microsomal Stability) (%) human [4]: 42.8-45.1%
- MS(Microsomal Stability) (%) rat [5]: 26.0-29.1%
- radioiodine uptake in the tumor, ATC mouse tumor model (CAL-62/effluc tumor [6]): not increased
